# Assays:
# [1] = system: Hepatitis B virus; assay: Inhibition of the replication of HBV in 2.2.15 cells, by DNA hybridization assay; format: functional, organism-based; conditions: HepG2 2.2.15
# [2] = system: Human alphaherpesvirus 1; assay: Concentration inhibiting the replication of HSV-1 in BSC-1 cells determined by ELISA assay; format: functional, organism-based, herpes simplex virus; conditions: Human alphaherpesvirus 1, BSC-1
# [3] = system: CCRF-CEM; assay: Cytotoxicity in uninfected CEM cells; format: functional; conditions: Homo sapiens
# [4] = system: Human gammaherpesvirus 4; assay: Concentration inhibiting the replication of EBV in Daudi cells; format: functional, organism-based; conditions: human gammaherpesvirus 4, Daudi
# [5] = system: Human gammaherpesvirus 4; assay: Concentration inhibiting the replication of EBV in H-1 cells by DNA hybridization assay; format: functional, organism-based; conditions: human gammaherpesvirus 4, H-1
# [6] = system: Human alphaherpesvirus 1; assay: Concentration inhibiting the replication of HSV-1 in Vero cells determined by plaque reduction assay; format: functional, organism-based, herpes simplex virus; conditions: Human alphaherpesvirus 1, Vero
# [7] = system: Human alphaherpesvirus 2; assay: Concentration inhibiting the replication of HSV-2 in Vero cells.; format: functional, organism-based; conditions: Human alphaherpesvirus 2, Vero
# [8] = system: Daudi; assay: Cytotoxicity in uninfected Daudi cells; format: functional; conditions: Homo sapiens
# [9] = system: HFF; assay: Cytotoxicity was scored on uninfected HFF cells not affected by virus in the HCMV (AD169 strain) by neutral red uptake; format: functional
# [10] = system: Human betaherpesvirus 5; assay: Concentration inhibiting the replication of HCMV in HFF cells by plaque reduction assay; conditions: Human betaherpesvirus 5, HFF
# [11] = system: HFF; assay: Cytotoxicity against proliferating HFF cells; format: functional; conditions: Homo sapiens
# [12] = system: MEF; assay: Cytotoxicity in uninfected MEF cells; format: functional; conditions: Mus musculus
# [13] = system: Murid betaherpesvirus 1; assay: Concentration inhibiting the replication of MCMV in MEF cells; format: functional, organism-based; conditions: Murid betaherpesvirus 1, MEF
# [14] = system: Daudi; assay: Concentration inhibiting the replication of EBV in Daudi cells by DNA hybridization assay; format: functional, cell-based; conditions: Homo sapiens
Structure (SMILES),EC50 [1],EC50 [2],CC50 [3],EC50 [4],EC50 [5],EC50 [6],EC50 [7],CC50 [8],CC50 [9],EC50 [10],CC50 [11],CC50 [12],EC50 [13],EC50 [14]
CC(C)Nc1nc(N)nc2c1ncn2/C=C1/C[C@@H]1CO,> 10 µM,15 µM,> 100 µM,36.5 µM,11 µM,> 38 µM,> 50 µM,168 µM,> 365 µM,> 365 µM,–,–,–,–
Nc1nc(NC2CCCCC2)c2ncn(/C=C3/C[C@@H]3CO)c2n1,> 20 µM,15 µM,> 100 µM,> 159 µM,> 20 µM,> 50 µM,> 50 µM,> 159 µM,> 318 µM,180 µM,–,–,–,–
Nc1nc(OCC2CC2)c2ncn(/C=C3/C[C@@H]3CO)c2n1,12.6 µM,7 µM,41 µM,29.2 µM,12.6 µM,8 µM,12 µM,112 µM,–,8.4 µM,112 µM,278 µM,0.35 µM,–
Nc1nc(NC2CC2)c2ncn(/C=C3/C[C@@H]3CO)c2n1,> 10 µM,20 µM,70 µM,6.2 µM,0.66 µM,15 µM,22 µM,176 µM,–,12 µM,213 µM,367 µM,0.15 µM,0.85 µM
CCCOc1nc(N)nc2c1ncn2/C=C1/C[C@@H]1CO,4.1 µM,1 µM,32 µM,> 182 µM,1.5 µM,4 µM,10 µM,> 182 µM,–,8 µM,69.4 µM,363 µM,< 0.11 µM,–
C=CCNc1nc(N)nc2c1ncn2/C=C1/C[C@@H]1CO,20 µM,4 µM,> 100 µM,> 184 µM,18.5 µM,18 µM,21 µM,> 184 µM,–,> 368 µM,> 368 µM,> 368 µM,0.33 µM,–
Nc1nc(NCC2CC2)c2ncn(/C=C3/C[C@@H]3CO)c2n1,> 20 µM,2.5 µM,> 100 µM,0.56 µM,> 20 µM,25 µM,> 50 µM,> 175 µM,–,10.8 µM,–,279 µM,1.7 µM,7 µM
COc1nc(N)nc2c1ncn2/C=C1/C[C@@H]1CO,> 10 µM,20 µM,98 µM,3.8 µM,0.44 µM,23 µM,16 µM,146 µM,–,10 µM,15.8 µM,351 µM,0.24 µM,1 µM
Nc1nc(NCc2ccccc2)c2ncn(/C=C3/C[C@@H]3CO)c2n1,> 20 µM,> 50 µM,> 50 µM,> 155 µM,> 20 µM,> 100 µM,52 µM,–,> 310 µM,> 62 µM,–,25 µM,–,–
Nc1nc(O)c2ncn(/C=C3/C[C@@H]3CO)c2n1,> 10 µM,45 µM,90 µM,2.3 µM,0.47 µM,50 µM,> 50 µM,> 215 µM,–,55 µM,257 µM,> 429 µM,0.39 µM,< 0.34 µM
Nc1nc(NCCO)c2ncn(/C=C3/C[C@@H]3CO)c2n1,> 20 µM,> 100 µM,> 100 µM,> 181 µM,> 20 µM,> 50 µM,> 50 µM,> 181 µM,–,> 60 µM,–,> 362 µM,11.9 µM,–
Nc1nc(S)c2ncn(/C=C3/C[C@@H]3CO)c2n1,20 µM,> 100 µM,29 µM,> 8 µM,> 20 µM,> 50 µM,> 50 µM,35.3 µM,–,> 80 µM,–,64 µM,> 16 µM,–
CCCCCOc1nc(N)nc2c1ncn2/C=C1/C[C@@H]1CO,7.3 µM,7 µM,87 µM,23.4 µM,7.3 µM,3 µM,4 µM,> 165 µM,–,> 66 µM,41.9 µM,224 µM,1.45 µM,–
CCCCCSc1nc(N)nc2c1ncn2/C=C1/C[C@@H]1CO,> 20 µM,7 µM,26 µM,39.8 µM,> 20 µM,10 µM,14 µM,> 157 µM,–,> 80 µM,215 µM,171 µM,1.5 µM,–
CCCSc1nc(N)nc2c1ncn2/C=C1/C[C@@H]1CO,5.1 µM,1 µM,> 100 µM,> 172 µM,6.3 µM,9 µM,10 µM,> 172 µM,–,> 69 µM,283 µM,343 µM,1.4 µM,–
C#CCNc1nc(N)nc2c1ncn2/C=C1/C[C@@H]1CO,> 10 µM,6 µM,> 100 µM,> 185 µM,~2 µM,20 µM,50 µM,> 185 µM,–,> 74 µM,306 µM,> 370 µM,0.37 µM,–
C=CCOc1nc(N)nc2c1ncn2/C=C1/C[C@@H]1CO,11 µM,1.5 µM,26 µM,> 183 µM,1.1 µM,7 µM,8 µM,> 183 µM,–,2.3 µM,220 µM,> 366 µM,0.29 µM,–

# Source: ChEMBL document CHEMBL1136768, “Structure-activity relationships of (S,Z)-2-aminopurine methylenecyclopropane analogues of nucleosides. Variation of purine-6 substituents and activity against herpesviruses and hepatitis B virus” (J Med Chem, 2003)
